# Source: patent US20230027361A1, “METTL3 MODULATORS” (priority 2019, published 2023)
# Read-outs that look alike come from different tables or passages of the source.
# Experiments:
# METTL16 = molecular target: T1, METTL16 (Homo sapiens, UniProt Q86W50); test: METTL16 Assay (METTL16 biochemical assay); conditions: read-out: METTL16 IC50
# T1 sequence (Q86W50 1-562): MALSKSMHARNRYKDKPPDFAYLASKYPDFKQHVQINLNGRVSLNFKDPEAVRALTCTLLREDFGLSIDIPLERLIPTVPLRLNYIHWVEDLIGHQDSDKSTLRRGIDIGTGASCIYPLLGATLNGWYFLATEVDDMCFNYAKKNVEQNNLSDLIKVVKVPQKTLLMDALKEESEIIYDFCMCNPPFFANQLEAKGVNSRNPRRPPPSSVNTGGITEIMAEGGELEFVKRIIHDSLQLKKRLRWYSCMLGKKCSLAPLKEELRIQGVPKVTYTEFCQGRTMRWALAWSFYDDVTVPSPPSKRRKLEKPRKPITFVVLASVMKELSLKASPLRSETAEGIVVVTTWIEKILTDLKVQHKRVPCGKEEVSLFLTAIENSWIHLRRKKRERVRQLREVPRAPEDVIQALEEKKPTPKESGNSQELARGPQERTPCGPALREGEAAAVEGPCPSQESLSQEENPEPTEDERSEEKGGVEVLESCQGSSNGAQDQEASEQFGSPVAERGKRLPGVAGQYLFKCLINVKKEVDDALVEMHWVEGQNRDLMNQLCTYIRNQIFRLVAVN
# Description: Assays were performed in a 25 μl-volume in 384-well V-bottom polypropylene microplates (Greiner Bio-One, cat. No. 781280) at ambient temperature. Optimized 1× assay buffer was 20 mM HEPES pH 7.5, 50 mM KCl, 1 mM DTT, 0.01% Tween, 0.01% BSG, 0.004 U/μl RNAseOUT (cat. No. 10777019, ThermoFisher Scientific, Waltham, Mass.). For compound screening METTL16 (final concentration, f.c.=100 nM) was added using a Multidrop Combi (ThermoFisher Scientific, Waltham, Mass.) and preincubated for 5 min. Reactions were started by adding 3′ biotinylated RNA ([…]-biotin) (f.c.=50 nM), 3H-SAM (f.c.=200 nM) and non-radiolabeled SAM (f.c.=800 nM) substrates. Reactions proceeded for 20 minutes and were quenched with excess non-radioactive SAM (f.c.=100 μM). The reactions were then transferred to streptavidin-coated flashplates and incubated for 2 hours at 25° C. Following two washing cycles with 0.1% Tween-20, the plates were sealed and read on a TopCount (PerkinElmer, Waltham, Mass.) plate-based scintillation counter. For determination of kinetic parameters, reaction times were optimized so that measurements were taken during the initial velocity phase of the reaction.
# METTL1/WDR4 = METTL1/WDR4 (Homo sapiens, UniProt Q9UBP6); test: METTL1 Assay (METTL1 biochemical assay)
# Outline: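 Radiometric methyltransfer by METTL1/WDR4 (6.25 nM f.c., 5 min preincubation) at ambient temperature in HEPES pH 7.5, KCl, MgCl2, DTT; started with 25 nM 3′-biotinylated RNA and 60 nM 3H-SAM, run 20 min, quenched with 15 μM cold SAM. Product captured on streptavidin flashplates (2 h, 25° C), counted by scintillation.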
# METTL3/METTL14 = METTL3/METTL14 (Homo sapiens, UniProt Q86U44); test: METTL3-14 Standard Enzyme Assay (METTL3 biochemical assay)
# Outline: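 METTL3/METTL14 at 2.5 nM, preincubated 5 min with compound in 20 mM HEPES pH 7.5, 50 mM KCl, 250 μM MgCl2, 1 mM DTT, at ambient temperature. Started with 100 nM 3′-biotinylated RNA and 100 nM ³H-SAM, quenched at 30 min with 15 μM cold SAM. Methylation read by scintillation on streptavidin flashplates.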
# PRMT5-MEP50 = PRMT5-MEP50 (Homo sapiens, UniProt O14744); test: PRMT5 Assay (PRMT5 biochemical assay)
# Outline: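 PRMT5-MEP50 (2.5 nM final) preincubated 5 min with compound, then reacted 60 min at ambient temperature with 100 nM biotinylated N-acetyl histone H4 peptide and 250 nM 3H-SAM in 20 mM Tris-HCl pH 8.0, 1 mM DTT, 0.01% Tween. Quenched with 15 μM cold SAM; methylated peptide captured on streptavidin flashplates, scintillation counted.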
# MOLM-13 cells = test: MOLM-13 96 Hour Cell Proliferation Assay; assay type: cell-based; conditions: Homo sapiens
# Outline: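 MOLM-13 cells in RPMI 1640 with 10% FBS were plated overnight at 37 °C, then exposed to compound dilutions at 0.25% DMSO final for 96 h. Viability was read by CellTiter-Glo luminescence, normalised to staurosporine (100% death) and DMSO (0% death) controls, and IC50 was fitted by 4-parameter logistic regression.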
# [1] = test system: m6A in cellular mRNA of MOLM-13 cells; test: m6A-mRNA LC-MS/MS Assay (m6A cellular assay); assay type: cell-based; conditions: Homo sapiens, MOLM-13, read-out: m^6A IC50
# Description: Cells were harvested by centrifugation followed by mRNA extraction using DIRECT Dynabeads mRNA DIRECT kit (Life Technologies). mRNA was quantified on NanoDrop spectrophotometer (Thermo Fisher Scientific) and digested into single nucleosides using Nucleoside Digestion Mix (New England Biolabs). […] Quantification is performed in comparison with the standard curve, obtained from pure nucleoside standards (Selleck Chemicals) running with the same batch of samples. Percentage m^6A in cellular mRNA is calculated as 100*(m^6A/A).
# [2] = METTL3 biochemical assay, read-out: METTL3 IC50
# [3] = PRMT5 biochemical assay, read-out: PRMT5 IC50
# [4] = read-out: METTL1 IC50, METTL1 biochemical assay
# [5] = METTL1 biochemical assay, read-out: METTL1 IC50
# [6] = read-out: METTL3 IC50, METTL3 biochemical assay
# [7] = read-out: PRMT5 IC50, PRMT5 biochemical assay
# Chain of PRMT5-MEP50 (O14744 whole entry): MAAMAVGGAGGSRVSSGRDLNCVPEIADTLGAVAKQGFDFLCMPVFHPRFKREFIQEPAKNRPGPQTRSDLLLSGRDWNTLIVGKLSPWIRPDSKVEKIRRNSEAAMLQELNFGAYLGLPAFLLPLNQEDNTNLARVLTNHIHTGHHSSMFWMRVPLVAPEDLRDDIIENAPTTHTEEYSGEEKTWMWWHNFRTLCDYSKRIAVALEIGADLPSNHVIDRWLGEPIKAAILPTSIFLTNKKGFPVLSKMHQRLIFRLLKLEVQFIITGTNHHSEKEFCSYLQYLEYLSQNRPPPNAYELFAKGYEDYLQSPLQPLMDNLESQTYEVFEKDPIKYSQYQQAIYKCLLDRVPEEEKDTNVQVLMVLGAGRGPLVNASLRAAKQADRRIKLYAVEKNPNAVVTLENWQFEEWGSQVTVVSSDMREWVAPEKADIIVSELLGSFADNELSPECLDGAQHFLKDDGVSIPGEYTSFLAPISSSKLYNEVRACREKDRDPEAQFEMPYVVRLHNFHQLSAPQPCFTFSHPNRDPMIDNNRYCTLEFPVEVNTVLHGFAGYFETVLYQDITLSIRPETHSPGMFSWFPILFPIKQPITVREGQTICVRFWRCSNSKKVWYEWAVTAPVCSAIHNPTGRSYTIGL
# Chain of PRMT5-MEP50 (Q9BQA1 whole entry partner): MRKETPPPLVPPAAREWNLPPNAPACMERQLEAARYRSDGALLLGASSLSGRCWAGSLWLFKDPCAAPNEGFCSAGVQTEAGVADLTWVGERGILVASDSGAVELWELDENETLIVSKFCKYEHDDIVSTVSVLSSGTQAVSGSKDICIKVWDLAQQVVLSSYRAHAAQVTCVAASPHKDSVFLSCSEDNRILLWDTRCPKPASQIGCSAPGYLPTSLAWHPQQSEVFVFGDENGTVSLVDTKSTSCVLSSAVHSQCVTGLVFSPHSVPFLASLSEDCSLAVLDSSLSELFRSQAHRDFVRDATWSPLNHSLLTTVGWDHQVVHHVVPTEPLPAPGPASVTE
# Chain of METTL3/METTL14 (Q86U44 whole entry, species assumed): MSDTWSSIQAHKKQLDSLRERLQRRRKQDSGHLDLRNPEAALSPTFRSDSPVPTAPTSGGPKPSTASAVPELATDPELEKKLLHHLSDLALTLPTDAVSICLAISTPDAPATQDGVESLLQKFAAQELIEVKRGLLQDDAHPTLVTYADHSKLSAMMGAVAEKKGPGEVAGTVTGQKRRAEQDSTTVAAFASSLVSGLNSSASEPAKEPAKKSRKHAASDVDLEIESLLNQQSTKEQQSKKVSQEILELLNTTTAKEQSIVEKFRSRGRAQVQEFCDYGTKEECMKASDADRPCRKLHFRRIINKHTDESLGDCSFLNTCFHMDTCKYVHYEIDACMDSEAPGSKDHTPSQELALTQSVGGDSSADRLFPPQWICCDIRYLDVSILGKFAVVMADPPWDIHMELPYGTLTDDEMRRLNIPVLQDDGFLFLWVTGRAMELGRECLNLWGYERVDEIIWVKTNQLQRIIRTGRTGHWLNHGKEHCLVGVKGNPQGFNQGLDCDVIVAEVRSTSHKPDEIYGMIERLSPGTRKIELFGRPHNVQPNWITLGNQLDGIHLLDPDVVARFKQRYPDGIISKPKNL
# Chain of METTL3/METTL14 (Q9HCE5 whole entry partner, species assumed): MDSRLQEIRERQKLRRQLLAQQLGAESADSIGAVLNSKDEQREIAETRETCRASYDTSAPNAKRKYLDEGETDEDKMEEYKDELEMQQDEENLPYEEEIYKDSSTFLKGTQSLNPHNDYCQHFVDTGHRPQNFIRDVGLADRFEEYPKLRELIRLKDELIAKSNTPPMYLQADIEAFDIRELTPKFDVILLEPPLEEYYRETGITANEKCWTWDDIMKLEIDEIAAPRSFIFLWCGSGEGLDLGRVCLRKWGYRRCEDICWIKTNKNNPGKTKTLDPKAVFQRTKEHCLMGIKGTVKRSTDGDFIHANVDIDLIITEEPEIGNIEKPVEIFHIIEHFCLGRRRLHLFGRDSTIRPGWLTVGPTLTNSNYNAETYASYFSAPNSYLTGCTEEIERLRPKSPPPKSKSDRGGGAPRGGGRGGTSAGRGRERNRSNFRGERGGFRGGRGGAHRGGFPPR
# Chain of METTL1/WDR4 (Q9UBP6 whole entry, species assumed): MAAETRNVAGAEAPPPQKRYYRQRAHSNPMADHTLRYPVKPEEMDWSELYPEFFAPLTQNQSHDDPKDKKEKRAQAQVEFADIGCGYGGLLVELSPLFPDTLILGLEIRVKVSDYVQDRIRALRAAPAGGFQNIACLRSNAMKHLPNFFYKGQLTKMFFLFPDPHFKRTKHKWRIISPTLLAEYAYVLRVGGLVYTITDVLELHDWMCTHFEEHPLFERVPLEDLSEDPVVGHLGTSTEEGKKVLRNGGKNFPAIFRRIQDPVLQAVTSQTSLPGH
# Chain of METTL1/WDR4 (P57081 whole entry partner, species assumed): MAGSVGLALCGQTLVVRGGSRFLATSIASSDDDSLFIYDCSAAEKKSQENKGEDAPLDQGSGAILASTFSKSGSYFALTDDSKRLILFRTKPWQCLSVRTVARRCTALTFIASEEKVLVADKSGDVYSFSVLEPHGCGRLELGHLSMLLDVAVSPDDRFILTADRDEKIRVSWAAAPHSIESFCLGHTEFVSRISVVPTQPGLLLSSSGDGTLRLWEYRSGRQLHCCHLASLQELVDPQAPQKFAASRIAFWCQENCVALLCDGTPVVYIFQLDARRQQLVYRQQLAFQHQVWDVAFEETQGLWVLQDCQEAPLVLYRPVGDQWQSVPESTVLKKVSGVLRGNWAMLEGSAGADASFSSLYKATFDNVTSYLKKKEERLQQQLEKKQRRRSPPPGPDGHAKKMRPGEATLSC
Compound,IC50 (METTL16),IC50 (METTL3/METTL14; [2]),IC50 (PRMT5-MEP50; [3]),IC50 (METTL1/WDR4; [4]),IC50 [1],also measured
CNc1ccc2ccc(OC[C@H]3O[C@@H](n4ccc5c(N)nc(C(=O)OC)nc54)[C@@H](F)[C@@H]3O)cc2n1 [I-223],> 1000 nM,> 1000 nM,> 1000 nM,,,IC50 (METTL1/WDR4): > 1000 nM
Cn1ccnc1-c1ccc2ccc(OC[C@H]3O[C@@H](n4cc(Br)c5c(N)ncnc54)[C@@H](F)[C@@H]3O)cc2n1 [I-26],> 1000 nM,> 1000 nM,100 to 1000 nM,> 1000 nM,,
CNc1ccc2ccc(OC[C@H]3O[C@@H](n4cc(C5=CCNC5)c5c(N)ncnc54)[C@@H](F)[C@@H]3O)cc2n1 [I-32],> 1000 nM,10 to 100 nM,100 to 1000 nM,> 1000 nM,,
Cc1cc(N)c2ccc(OC[C@H]3O[C@@H](n4cc(Br)c5c(N)ncnc54)C[C@@H]3O)cc2n1 [I-19],> 1000 nM,100 to 1000 nM,100 to 1000 nM,> 1000 nM,,"IC50 (MOLM-13 cells; MOLM-13, 96 h): > 10000 nM"
CCNc1ccc2ccc(OC[C@H]3O[C@@H](n4cc(C5CCCC5)c5c(N)ncnc54)[C@H](O)[C@@H]3O)cc2n1 [I-8],,< 10 nM,< 10 nM,> 1000 nM,< 1000 nM,
Nc1ncnc2c1ccn2[C@@H]1C[C@H](CCc2ccc3ccc(N4CCCC4)nc3c2)[C@@H](O)[C@H]1O [I-83],> 1000 nM,100 to 1000 nM,10 to 100 nM,> 1000 nM,,
CNc1ccc2ccc(OC[C@H]3O[C@@H](n4cc(C(F)(F)F)c5c(N)ncnc54)[C@@H](F)[C@@H]3O)cc2n1 [I-38],> 1000 nM,10 to 100 nM,100 to 1000 nM,> 1000 nM,,
Cn1ccc(-c2cn([C@@H]3C[C@H](CCc4ccc5ccc(N6CCC6)nc5c4)[C@@H](O)C3)c3ncnc(N)c23)n1 [I-205],,,,,1000 to 10000 nM,IC50 (MOLM-13 cells): < 1000 nM; IC50 (METTL3/METTL14): < 10 nM; IC50 (PRMT5-MEP50): > 1000 nM
Nc1ncnc2c1ccn2[C@@H]1C[C@H](COc2ccc3ccc(N4CCCC4)nc3c2)[C@@H](O)[C@H]1O [I-82],> 1000 nM,100 to 1000 nM,100 to 1000 nM,> 1000 nM,,
Nc1ncnc2c1c(Br)cn2[C@@H]1O[C@H](COc2ccc3ccc(N4CCCC4)nc3c2)[C@@H](O)[C@H]1O [I-72],> 1000 nM,10 to 100 nM,10 to 100 nM,> 1000 nM,,
CNc1ccc2ccc(OC[C@H]3O[C@@H](n4cc(-c5cc(F)cc(F)c5)c5c(N)ncnc54)[C@@H](F)[C@@H]3O)cc2n1 [I-43],> 1000 nM,,,,,IC50 (METTL1/WDR4; [5]): > 1000 nM; IC50 (METTL3/METTL14; [6]): 100 to 1000 nM; IC50 (PRMT5-MEP50; [7]): 100 to 1000 nM
CNc1ccc2ccc(OC[C@H]3O[C@@H](n4cc(-c5ccn(C)n5)c5c(N)ncnc54)[C@H](O)[C@@H]3O)cc2n1 [I-6],,,,,< 1000 nM,IC50 (METTL1/WDR4; [5]): > 1000 nM; IC50 (METTL3/METTL14; [6]): < 10 nM; IC50 (PRMT5-MEP50; [7]): < 10 nM
"Cn1ccc(-c2cn([C@@H]3C[C@H](COc4ccc5ccc(N6CCC6)nc5c4)[C@@H](O)C3)c3ncnc(N)c23)n1 [I-169, (1S,2R,4R)-4-[4-amino-5-(1-methyl-1H-pyrazol-3-yl)-7H-pyrrolo[2,3-d]pyrimidin-7-yl]-2-({[2-(azetidin-1-yl)quinolin-7-yl]oxy}methyl)cyclopentan-1-ol]",,,,,1000 to 10000 nM,IC50 (MOLM-13 cells): 1000 to 10000 nM; IC50 (METTL3/METTL14): < 10 nM; IC50 (PRMT5-MEP50): > 1000 nM
